Source: PubChem BioAssay AID328 (DTP/NCI, 2004)
“And” between values parts separate entries of the source, which are not always exact repeats. Identical values can stand only once. Toxic doses and inconclusive results are not listed.

System: BDF1 mice, P388 leukemia ip, median survival T/C
Assay: NCI In Vivo Anticancer Drug Screen. Data for tumor model P388 Leukemia (intraperitoneal) in B6D2F1 (BDF1) mice
Conditions: endpoint: median survival time, higher = longer survival
Method in brief: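 Compound-treated tumour-bearing mice were compared with vehicle-treated controls. Survival was recorded, and the value is the treated-group measurement divided by the control-group measurement (T/C).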

[1] = dose: 50.0 mg/kg/injection, schedule: Q01DX009 (ip), vehicle: saline with Tween-80
[2] = dose: 100.0 mg/kg/injection, schedule: Q01DX009 (ip), vehicle: saline with Tween-80
[3] = dose: 200.0 mg/kg/injection, schedule: Q01DX009 (ip), vehicle: saline with Tween-80
[4] = dose: 100.0 mg/kg/injection, schedule: Q01DX009 (ip), vehicle: saline
[5] = dose: 100.0 mg/kg/injection, schedule: Q04DX003 (ip), vehicle: saline
[6] = dose: 200.0 mg/kg/injection, schedule: Q01DX009 (ip), vehicle: saline
[7] = dose: 200.0 mg/kg/injection, schedule: Q04DX003 (ip), vehicle: saline
[8] = dose: 400.0 mg/kg/injection, schedule: Q01DX009 (ip), vehicle: saline
[9] = dose: 400.0 mg/kg/injection, schedule: Q04DX003 (ip), vehicle: saline
[10] = dose: 25.0 mg/kg/injection, schedule: Q01DX009 (ip), vehicle: Klucel (hydroxypropylcellulose) (HPC)
[11] = dose: 50.0 mg/kg/injection, schedule: Q01DX009 (ip), vehicle: Klucel (hydroxypropylcellulose) (HPC)
[12] = dose: 100.0 mg/kg/injection, schedule: Q04DX003 (ip), vehicle: saline with Tween-80
[13] = dose: 200.0 mg/kg/injection, schedule: Q04DX003 (ip), vehicle: saline with Tween-80
[14] = dose: 400.0 mg/kg/injection, schedule: Q04DX003 (ip), vehicle: saline with Tween-80
[15] = dose: 100.0 mg/kg/injection, schedule: Q01DX009 (ip), vehicle: Klucel (hydroxypropylcellulose) (HPC)

SMILES: CCOC(=O)C(=Cc1ccc(O)c(OC)c1)C(=O)OCC
- T/C (dose: 100.0 mg/kg/injection, schedule: Q01DX001 (ip), vehicle: saline with Tween-80): 90 % of control
- T/C (dose: 200.0 mg/kg/injection, schedule: Q01DX001 (ip), vehicle: saline with Tween-80): 95 % of control
- T/C (dose: 400.0 mg/kg/injection, schedule: Q01DX001 (ip), vehicle: saline with Tween-80): 104 % of control

SMILES: CN(C)c1ccc(C(O)(Cc2cccnc2)c2ccc(N(C)C)cc2)cc1
- T/C [1]: 113 % of control
- T/C [2]: 100 % of control
- T/C [3]: 96 % of control

SMILES: CC(=O)Nc1ccc(C(=O)O)c([N+](=O)[O-])c1
- T/C (dose: 25.0 mg/kg/injection, schedule: Q01DX009 (ip), vehicle: saline): 86 % of control
- T/C (dose: 50.0 mg/kg/injection, schedule: Q01DX009 (ip), vehicle: saline): 92 % of control and 106 % of control
- T/C [4]: 91 % of control and 100 % of control
- T/C [5]: 98 % of control
- T/C [6]: 106 % of control
- T/C [7]: 108 % of control
- T/C [8]: 101 % of control
- T/C [9]: 96 % of control

SMILES: CCOc1ccc2nnnn2n1
- T/C (dose: 62.5 mg/kg/injection, schedule: Q01DX009 (ip), vehicle: saline): 100 % of control
- T/C (dose: 250.0 mg/kg/injection, schedule: Q01DX009 (ip), vehicle: saline): 97 % of control

SMILES: ClCCN=Cc1ccc(Cl)cc1
- T/C [2]: 116 % of control
- T/C [3]: 111 % of control
- T/C (dose: 400.0 mg/kg/injection, schedule: Q01DX009 (ip), vehicle: saline with Tween-80): 120 % of control

SMILES: O=c1[nH]c(=O)n(O)c2nc[nH]c12
- T/C (dose: 25.0 mg/kg/injection, schedule: Q04DX003 (ip), vehicle: saline): 100 % of control
- T/C (dose: 37.5 mg/kg/injection, schedule: Q01DX001 (ip), vehicle: saline): 100 % of control
- T/C (dose: 50.0 mg/kg/injection, schedule: Q04DX003 (ip), vehicle: saline): 100 % of control
- T/C (dose: 75.0 mg/kg/injection, schedule: Q01DX001 (ip), vehicle: saline): 109 % of control
- T/C (dose: 75.0 mg/kg/injection, schedule: Q01DX009 (ip), vehicle: saline): 90 % of control
- T/C [5]: 118 % of control

SMILES: OC1CC2c3ccccc3C1c1cccc[n+]12 (configuration not stated)
- T/C (dose: 12.5 mg/kg/injection, schedule: Q01DX009 (ip), vehicle: Klucel (hydroxypropylcellulose) (HPC)): 87 % of control and 91 % of control
- T/C [10]: 104 % of control
- T/C [11]: 91 % of control and 100 % of control
- T/C (dose: 56.25 mg/kg/injection, schedule: Q04DX003 (ip), vehicle: Klucel (hydroxypropylcellulose) (HPC)): 100 % of control
- T/C (dose: 75.0 mg/kg/injection, schedule: Q01DX009 (ip), vehicle: Klucel (hydroxypropylcellulose) (HPC)): 100 % of control
- T/C (dose: 112.5 mg/kg/injection, schedule: Q04DX003 (ip), vehicle: Klucel (hydroxypropylcellulose) (HPC)): 108 % of control

SMILES: C[N+]1(C)N=C([O-])N(c2ccccc2[N+](=O)[O-])C1=O
- T/C [1]: 88 % of control

SMILES: c1ccc(-c2oc3cc4c(cc3c2-c2ccc(OCCN3CCCC3)cc2)CCC4)cc1
- T/C [12]: 95 % of control

SMILES: Cc1cc(C)c(NS(=O)(=O)c2ccc([N+](=O)[O-])cc2)c(C)c1
- T/C (dose: 75.0 mg/kg/injection, schedule: Q01DX001 (ip), vehicle: saline with Tween-80): 100 % of control
- T/C (dose: 150.0 mg/kg/injection, schedule: Q01DX001 (ip), vehicle: saline with Tween-80): 90 % of control
- T/C (dose: 300.0 mg/kg/injection, schedule: Q01DX001 (ip), vehicle: saline with Tween-80): 100 % of control

SMILES: O=[N+]([O-])c1ccc([I+]c2ccccc2)cc1
- T/C (dose: 1.5 mg/kg/injection, schedule: Q04DX003 (ip), vehicle: saline sonified): 100 % of control
- T/C (dose: 5.5 mg/kg/injection, schedule: Q01DX009 (ip), vehicle: saline with Tween-80): 150 % of control
- T/C (dose: 8.25 mg/kg/injection, schedule: Q01DX009 (ip), vehicle: saline with Tween-80): 154 % of control
- T/C (dose: 12.0 mg/kg/injection, schedule: Q04DX003 (ip), vehicle: saline sonified): 118 % of control
- T/C (dose: 16.5 mg/kg/injection, schedule: Q04DX003 (ip), vehicle: saline): 150 % of control
- T/C (dose: 25.0 mg/kg/injection, schedule: Q01DX009 (ip), vehicle: saline with Tween-80): 154 % of control
- T/C [1]: 150 % of control
- T/C [2]: 158 % of control
- T/C (dose: 100.0 mg/kg/injection, schedule: Q04DX003 (ip), vehicle: saline sonified): 150 % of control

SMILES: Cc1ccc(NC(=O)CC#N)c(C)c1
- T/C [5]: 109 % of control
- T/C [7]: 100 % of control
- T/C [9]: 92 % of control

SMILES: C/C=C(/C)C(=O)O[C@H]1CC[N+]2([O-])CC=C(COC(=O)[C@@](O)([C@H](C)OC)C(C)(C)O)[C@H]12 (some centres not stated)
- T/C (dose: 40.0 mg/kg/injection, schedule: Q01DX010 (ip), vehicle: saline): 105 % of control
- T/C (dose: 50.0 mg/kg/injection, schedule: Q01DX010 (ip), vehicle: saline): 86 % of control
- T/C (dose: 80.0 mg/kg/injection, schedule: Q01DX010 (ip), vehicle: saline): 111 % of control

SMILES: NC(=S)N/N=C\c1nnc(N)s1
- T/C [1]: 90 % of control

SMILES: COC1OC(CNC(=O)N(C)N=O)C(O)C(O)C1O (configuration not stated)
- T/C [4]: 164 % of control
- T/C [6]: 240 % of control
- T/C (dose: 266.0 mg/kg/injection, schedule: Q04DX003 (ip), vehicle: saline): 154 % of control
- T/C [8]: 309 % of control
- T/C [9]: 162 % of control
- T/C (dose: 600.0 mg/kg/injection, schedule: Q04DX003 (ip), vehicle: saline): 216 % of control

SMILES: O=C1C=CC(=O)C23CC=CCC12C(=O)c1ccccc1C3=O (configuration not stated)
- T/C (dose: 6.25 mg/kg/injection, schedule: Q04DX003 (ip), vehicle: water): 107 % of control
- T/C (dose: 12.5 mg/kg/injection, schedule: Q04DX003 (ip), vehicle: water): 107 % of control
- T/C (dose: 25.0 mg/kg/injection, schedule: Q04DX003 (ip), vehicle: water): 92 % of control

SMILES: CC(C)(C)OC(=O)NC(CCCNC(=O)OCc1ccccc1)C(=O)NC(CCCNC(=O)OCc1ccccc1)C(=O)OCc1ccccc1 (configuration not stated)
- T/C (dose: 50.0 mg/kg/injection, schedule: Q01DX005 (ip), vehicle: saline with Tween-80): 91 % of control
- T/C (dose: 100.0 mg/kg/injection, schedule: Q01DX005 (ip), vehicle: saline with Tween-80): 92 % of control
- T/C (dose: 200.0 mg/kg/injection, schedule: Q01DX005 (ip), vehicle: saline with Tween-80): 95 % of control

SMILES: CCNC(=O)Nc1ccc(N(CC)CC)cc1
- T/C [12]: 100 % of control
- T/C [13]: 100 % of control
- T/C [14]: 100 % of control

SMILES: CC(c1ccccc1)N1CCS(=O)(=O)CC1 (configuration not stated)
- T/C [11]: 93 % of control
- T/C [15]: 106 % of control
- T/C (dose: 200.0 mg/kg/injection, schedule: Q01DX009 (ip), vehicle: Klucel (hydroxypropylcellulose) (HPC)): 90 % of control

SMILES: CN(C)P(=O)(N(C)C)N1CC1
- T/C (dose: 90.0 mg/kg/injection, schedule: Q04DX003 (ip), vehicle: saline): 192 % of control
- T/C [5]: 157 % of control
- T/C (dose: 135.0 mg/kg/injection, schedule: Q04DX003 (ip), vehicle: saline): 176 % of control
- T/C [7]: 233 % of control and 211 % of control

SMILES: CO/N=C/c1ccc([N+](=O)[O-])s1
- T/C (dose: 12.0 mg/kg/injection, schedule: Q04DX003 (ip), vehicle: Klucel (hydroxypropylcellulose) (HPC)): 118 % of control
- T/C [10]: 100 % of control
- T/C (dose: 25.0 mg/kg/injection, schedule: Q04DX003 (ip), vehicle: Klucel (hydroxypropylcellulose) (HPC)): 113 % of control
- T/C [11]: 108 % of control
- T/C (dose: 50.0 mg/kg/injection, schedule: Q04DX003 (ip), vehicle: Klucel (hydroxypropylcellulose) (HPC)): 104 % of control
- T/C [15]: 108 % of control

SMILES: O=[N+]([O-])c1ccc(/C=C2\c3ccccc3-c3nc4ccccc4nc32)cc1
- T/C (dose: 150.0 mg/kg/injection, schedule: Q01DX001 (ip), vehicle: other): 118 % of control
- T/C (dose: 300.0 mg/kg/injection, schedule: Q01DX001 (ip), vehicle: other): 86 % of control

SMILES: O=S(c1ccccc1)C1Cc2ccccc2C1Cl (configuration not stated)
- T/C (dose: 50.0 mg/kg/injection, schedule: Q01DX009 (ip), vehicle: other): 107 % of control
- T/C (dose: 100.0 mg/kg/injection, schedule: Q01DX009 (ip), vehicle: other): 107 % of control
- T/C (dose: 200.0 mg/kg/injection, schedule: Q01DX009 (ip), vehicle: other): 115 % of control

SMILES: CS(=O)CC(O)(c1ccccc1)c1ccco1 (configuration not stated)
- T/C [1]: 116 % of control
- T/C [2]: 107 % of control
- T/C [3]: 106 % of control

SMILES: COc1ccc(/C=C/C(=O)c2ccc(OCc3ccccc3)c(OC)c2)cc1OC
- T/C (dose: 50.0 mg/kg/injection, schedule: Q04DX003 (ip), vehicle: saline with Tween-80): 105 % of control
- T/C [12]: 99 % of control
- T/C [13]: 87 % of control
- T/C [14]: 87 % of control
